Data published in patent US9963476B2, “Antioxidant compound having anti atherosclerotic effect and preparation thereof” (Council of Scientific and Industrial Research, priority 2015, dated 2018).

Columns and labels:
[1] = system: Apo E−/− mice aorta; experiment: Mito-Esc quantified by ESI-MS in cytosolic and mitochondrial fractions of ApoE−/− mice aortic tissue; type: in vivo; details: 0.5 mg/kg/day in drinking water
Procedure: (§1) After the treatment, cells were washed thrice with PBS. Similarly Mito-Esculetin+ Ang-II treatment group, Ang-II alone treatment group and control Apo E^-/- mice aortic tissue was taken. The isolation of mitochondrial and cytosolic extracts was carried out using a commercially available Proteo Extract Cytosol/Mitochondria Fractionation Kit (Cat. no. QIA88-Merck, USA) according to manufacturer's instructions. Initially, mitochondrial and cytosolic fractions were separated using a commercially available kit as mentioned elsewhere. Mito-Esc was quantified in the mitochondrial and cytosolic fractions obtained from HAEC and aorta of ApoE^-/- mice of different treatment groups as mentioned in Animal Experiments section (Table-1). Electrospray ionization (ESI)-MS. ESI-MS (positive mode) measurements were performed using a quadrupole time-of-flight mass spectrometer (QSTAR XL, Applied Biosystems/MDS Sciex, Foster City, Calif., USA). The data acquisition was under the control of Analyst QS software (Applied Biosystems). For the CID (collision-induced dissociation) experiments, the precursor ions were selected using the quadrupole analyzer and the product ions were analyzed using the TOF analyzer.

[2] = system: mitochondrial membrane potential in HAEC; experiment: Mitochondrial transmembrane potential (JC-1 / Mito-Sensor dye); type: cell-based, human; details: H2O2 500 μM, 16 h
Procedure: Mitochondrial potential was assessed by using the fluorescent potentiometric JC-1 dye. In healthy cells, JC-1 forms J-aggregates that display a strong red fluorescence with excitation of 560 nm and emission wavelength at 595 nm. In apoptotic or unhealthy cells, JC-1 exists as monomers that display a strong green fluorescence with excitation and emission at 485 nm and 535 nm, respectively. At the end of the treatments, cells were washed with Dulbeccos phosphate buffer solution (DPBS) and incubated with JC-1 dye ([…]) for 20 min. Cells were again washed twice with DPBS and maintained in culture medium. Fluorescence was monitored by using Olympus fluorescence microscope with Rhodamine and Fluorescein isothiocyanate (FITC) filters.
(§2) Ang-II is known to increase oxidative stress through increased production of H2O2 (Doughan A K, Harrison D G, Dikalov S I. Circ Res (2008) 102:488-96). […] Further, we assessed the effect of Mito-Esc on H2O2-induced mitochondrial membrane depolarization. HAEC were treated with H2O2 (500 μM) in the presence or absence of Mito-Esc for a period of 16 h and mitochondrial membrane potential was measured using a mitochondrial membrane sensor kit. […] In apoptotic cells, membrane potentials are altered and the Mito-Sensor dye cannot accumulate in mitochondria and, thus, remain as monomers leading to a green fluorescence.

[3] = system: nitric oxide generation in HAEC; experiment: Intracellular nitric oxide levels by DAF-2DA fluorescence; type: cell-based, human; details: 2.5 μM, 4 h
Procedure: Intracellular nitric oxide levels were monitored by using the Diaminofluorescein-diacetate (DAF-2DA) fluorescence probe. After the treatments, cells were washed with DPBS and incubated in fresh culture medium without fetal bovine serum (FBS). DAF-2DA was added at a final concentration of 5 μM, and the cells were incubated for 30 minutes. The cells were washed twice with DPBS and maintained in culture medium. Fluorescence was monitored by using Olympus fluorescence microscope with FITC filter (λex=488 nm and […]). Fluorescence intensity was calculated by Image-Pro plus7.0 software.
To gain mechanistic insight on Mito-Esc-mediated protection of endothelial cells from oxidant-induced endothelial cell death, initially we hypothesized that Mito-Esc may augment intracellular nitric oxide generation. To study this, HAEC were treated with both Mito-Esc and esculetin in the presence or absence of H2O2 for a period of 4 h and nitric oxide (NO) levels were monitored by DAF-2 derived green fluorescence. Previously, it has been shown that DAF-2 forms a fluorescent triazole-type product in the presence of an oxidant derived from nitric oxide and oxygen interaction (Proc. Natl. Acad. Sci. USA 99: 11127-11132; 2002.; Am. J. Physiol. Regul. Integ. Comp. Physiol. 286:R344-R431; 2004). […] Next, we investigated the possible role of endothelial nitric oxide synthase (eNOS) in mediating the Mito-Esc induced NO generation in HAEC. For this, endothelial cells were treated with various concentrations of Mito-Esc (1-5 μM) for a period of 8 h. […] To further substantiate the results of DAF fluorescence, eNOS phosphorylation was measured in HAEC incubated with either with H2O2 or Ang-II for 8 h in cells pretreated with Mito-Esc or native esculetin. It was observed that both H2O2 and Ang-II caused a reduction in Phospho eNOS (Ser-1177) levels (FIG. 4D). Ang-II treatment imposed a drastic inhibition of phospho-eNOS levels when compared to H2O2 treatment in endothelial cells (FIG. 4D).

[4] = system: Ang-II-induced H2O2 production in HAEC; experiment: H2O2 levels by Amplex red assay; type: cell-based, human; details: Ang-II 500 nM + Mito-Esc 2.5 μM, 16 h
Procedure: Amplex red reagent was used to detect the released H2O2 from cells. […] Immediately, formation of resorufin fluorescence was measured in multi mode reader (PerkinElmer) with λex=540 and λem=585.
as §2, with “kit. Mito-Sensor is a cationic dye that fluoresces differently in apoptotic and nonapoptotic cells.” for “kit.”

[5] = system: HAEC; experiment: Cellular uptake: Mito-Esc/esculetin quantified by ESI-MS in cytosolic and mitochondrial fractions of HAEC; type: in vitro ADME, human
Procedure: as §1, with “E^−/−” for “E^-/-”, “ApoE^−/−” for “ApoE^-/-”

O=c1cc(CCCCCCCC[P+](c2ccccc2)(c2ccccc2)c2ccccc2)c2cc(O)c(O)cc2o1.[Br-] [Mito-Esc]
Mitochondrial fraction [1]: 2547 ± 286 nmol/mg protein | H2O2-mediated mitochondrial membrane depolarization [2]: significantly rescued | DAF-2 fluorescence (NO production), compound alone [3]: greatly enhanced | H2O2-mediated depletion of NO levels ([3]; H2O2 500 μM): significantly restored | Ang-II-induced H2O2 levels [4]: completely reversed H2O2 levels to control conditions | accumulation in the mitochondria compared to native esculetin [5]: selectively accumulated in the mitochondria | Cytosolic fraction ([5]; HAEC, 2.5 μM, 24 h): 4488 ± 104 nmol/mg protein | Mitochondrial fraction ([5]; HAEC, 2.5 μM, 24 h): 14523 ± 342 nmol/mg protein
